Patent US20210154281A1, “CELL-BASED CANCER VACCINES AND CANCER THERAPIES” (Massachusetts Institute of Technology, priority 2019, published 2021)
Like-named read-outs stand apart in the source and are kept apart here.

Tests used:
Format in all cases: cell-based, mouse
B16-Ova cells = test: In vitro cross presentation assay: drug-treated B16-Ova cells, BMDC and OT-1 CD8+ T-cells, IFN-γ+ T-cells by flow cytometry; set-up: reduction of the percentage of IFNg+ T-cells by siRNA knockdown of calreticulin / reduction of T-cell IFN-γ responses / frequency of IFN-γ+ T-cells: concentration or dose not given beside the values
Method: B16-Ova or MC-38 Ova cells were treated with various doses of chemotherapeutic drugs for 24 h followed by extensive washing in IMDM (10% FBS, P/S). Subsequently 1×10^6 treated cells were co-cultured with 2.5×10^5 BMDC per well of a 24-well plate for each condition tested. After 24 hours of co-culture, supernatants were removed from each well and the BMDC washed 2-3 times in T-cell media (RPMI containing 10% FBS, 20 mM HEPES, 1 mM sodium pyruvate, 55 uM b-mercaptoethanol, 2 mM L-glutamine, nonessential amino acids and antibiotics). CD8+OT-I T-cells isolated from spleens of OT-I mice were then co-cultured with the BMDC at 125,000 T-cells per well to achieve an effector to target ratio of 0.5. Where indicated, BMDC and/or T-cells were also exposed to chemotherapy drugs. After a 12-15 h incubation, IFN-g producing T-cells were identified and quantified by intra-cellular cytokine staining and flow cytometry using a BD LSR II or Fortessa flow cytometer. Cells were first gated for CD3 expression, then re-gated for CD8 and IFNg expression.
An experimental system was developed to assess dendritic cell-mediated T-cell priming using the B16-Ova cells, in combination with primary bone-marrow derived dendritic cells (BMDC) and OT-I CD8+ T-cells expressing a TCR transgene that specifically recognizes the Ova-derived peptide […] (SEQ ID NO:1) in the context of H2-Kb (OT-1) (Clarke, et al., Immunol Cell Biol., 78(2):110-7 (2000); Hogquist, et al., Cell, 76(1):17-27 (1994)). […] The treated B16-Ova cells/BMDC co-culture was then incubated with purified CD8+ T-cells obtained from the spleens of OT-1 mice, and the appearance of IFNg+CD8 T-cells was measured 12-15 hours later by intracellular staining and subsequent quantification using flow cytometry.

[1] = tested on: B16F10 melanoma tumor cell line; test: Cell death by AnnexinV/DAPI staining 48 hours after drug treatment; conditions: for cell death by DAPI and Annexin V staining: at the concentrations used; for cytotoxicity at 0.05 µM / viability at 0.05 µM: 50 nM; for cytotoxicity at 0.25 µM / viability at 0.25 µM: 250 nM
Method: For assessment of cell death, floating and attached cells were harvested after 48 hours of treatment with the indicated chemotherapeutic drugs. Attached cells were detached using 5 mM EDTA in PBS. The recovered cells were centrifuged at 250×g for 5 minutes, washed once in PBS containing 0.9 mM Ca2+ and 0.5 mM Mg2+ and then stained with AnnV-FITC for 15 minutes in Annexin binding buffer at room temperature according to the manufacturer's protocol (Biolegend). Cells were co-stained with DAPI at a final concentration of 1 μg/ml for 2 minutes in Annexin binding buffer, brought to a final volume of 500 ul using PBS containing 0.9 mM Ca2^+ and 0.5 mM Mg2^+ and analyzed by flow cytometry.
To identify how DNA-damaging chemotherapy could be optimally used to enhance anti-tumor immune function, cytotoxicity assays were performed using the B16F10 melanoma tumor cell line expressing ovalbumin (B16-Ova). Cells were treated with clinically used chemotherapeutic agents followed by assaying for cell death by DAPI and Annexin V staining 48 hours later.

[2] = tested on: B16F10 melanoma tumor cell line; test: Cell viability (survival) assay with CellTiter-Glo, 48 hours; conditions: for Cell viability (%) MEAN: 48 hours, normalized to DMSO-treated control cells; for growth arrest: at the concentrations used
Method: (§1) For assays of survival, 15,000 cells were plated per well in a 96-well plate in 100 μl media with 5 replicates per condition. Wells along the four edges of the plate were not used. Following cell attachment, the indicated drugs were added in an equal volume of media, and incubated for an additional 48 hours. The media was then removed and replaced with 100 ul of fresh media at room temperature. Following a 30 minute incubation at room temperature, 50 μl of CellTiter-Glo reagent was added, followed by 2 minutes of gentle mixing. The plate was incubated at room temperature for an additional 10 minutes. 100 μl of supernatant was transferred to a 96-well white opaque plate and luminescence was read on a Tecan microplate reader. Values were normalized to those of DMSO-treated control cells.

[3] = as above; conditions: mouse, 48 hours, normalized to DMSO-treated control cells; for viability at 48 h, 0.05 uM: .05 uM
Method: as §1

[4] = co-treatment of B16-Ova cells with etoposide
[5] = co-treatment of B16-Ova cells with mitoxantrone
[6] = Mus musculus, B16-F10, 48 hours, read-out: AnnV+DAPI+ (%) Mean
[7] = Mus musculus, B16-F10, 48 hours, read-out: AnnV+DAPI− (%) Mean
[8] = Mus musculus, B16-F10, 48 hours, read-out: AnnV−DAPI+ (%) Mean
[9] = Mus musculus, B16-F10, 48 hours, read-out: AnnV−DAPI− (%) Mean
[10] = Mus musculus, B16-F10, 48 h, read-out: AnnV+DAPI+ (%) Mean
[11] = Mus musculus, B16-F10, 48 h, read-out: AnnV+DAPI− (%) Mean
[12] = Mus musculus, B16-F10, 48 h, read-out: AnnV−DAPI+ (%) Mean
[13] = Mus musculus, B16-F10, 48 h, read-out: AnnV−DAPI− (%) Mean

Compound: CC(C)(C)c1ccc(S(=O)(=O)/C=C/C#N)cc1 [Bay11-7085]
- BMDC-mediated T-cell priming (B16-Ova cells; [4]): inhibits BMDC-mediated T-cell priming
- reduction of T-cell IFN-γ responses / frequency of IFN-γ+ T-cells (B16-Ova cells; [4]): > 90%
- reduction of T-cell IFN-γ responses / frequency of IFN-γ+ T-cells (B16-Ova cells; [5]): > 50%

Compound: O=C1[O][Pt]2([NH][C@@H]3CCCC[C@H]3[NH]2)[O]C1=O [Oxal, oxaliplatin]
- AnnV+DAPI+ (%) Mean ([1]; 10 uM, 48 hours): 1.73%
- AnnV+DAPI− (%) Mean ([1]; 10 uM, 48 hours): 2.65%
- AnnV−DAPI+ (%) Mean ([1]; 10 uM, 48 hours): 1.11%
- AnnV−DAPI− (%) Mean ([1]; 10 uM, 48 hours): 94.50%
- AnnV+DAPI+ (%) Mean ([1]; 50 uM, 48 hours): 4.25%
- AnnV+DAPI− (%) Mean ([1]; 50 uM, 48 hours): 4.23%
- AnnV−DAPI+ (%) Mean ([1]; 50 uM, 48 hours): 1.09%
- AnnV−DAPI− (%) Mean ([1]; 50 uM, 48 hours): 90.45%
- cell death by DAPI and Annexin V staining ([1]; 48 hours): did not induce substantial amounts of cell death
- Cell viability (%) MEAN ([2]; 10 uM): 45.09%
- Cell viability (%) MEAN ([2]; 50 uM): 44.21%
- growth arrest [2]: caused some degree of growth arrest

Compound: Z-VAD
- reduction of T-cell IFN-γ responses / frequency of IFN-γ+ T-cells (B16-Ova cells; [4]): ~12%
- reduction of T-cell IFN-γ responses / frequency of IFN-γ+ T-cells (B16-Ova cells; [5]): no effect

Compound: Oc1ccc(-c2nc(-c3ccncc3)c(-c3ccc(F)cc3)[nH]2)cc1 [SB202190]
- reduction of T-cell IFN-γ responses / frequency of IFN-γ+ T-cells (B16-Ova cells; [4]): ~22%
- reduction of T-cell IFN-γ responses / frequency of IFN-γ+ T-cells (B16-Ova cells; [5]): nearly abrogated

Compound: Cc1ccc(-c2ccc3c(ccc4sc5c(c43)NC[C@@H](C)NC5=O)n2)cn1 [PF-3644022]
- BMDC-mediated T-cell priming (B16-Ova cells; [4]): enhances BMDC-mediated T-cell priming

Compound: CN1C(=O)C(Cc2c[nH]c3ccccc23)NC1=S (stereo not shown) [necrostatin-1]
- ability of drug-treated B16-Ova cells co-cultured with BMDCs to induce IFN-g in T-cells (B16-Ova cells; co-treatment with etoposide or mitoxantrone): inhibited the ability of both etoposide and mitoxantrone-treated B16-Ova cells

Compound: CCc1c2c(nc3ccc(OC(=O)N4CCC(N5CCCCC5)CC4)cc13)-c1cc3c(c(=O)n1C2)COC(=O)[C@]3(O)CC [Iri, irinotecan]
- cytotoxicity at 0.05 µM [1, 6]: 3.79%
- cytotoxicity at 0.05 µM [1, 7]: 0.36%
- cytotoxicity at 0.05 µM [1, 8]: 1.87%
- viability at 0.05 µM [1, 9]: 94%
- cytotoxicity at 0.25 µM [1, 6]: 5.06%
- cytotoxicity at 0.25 µM [1, 7]: 0.54%
- cytotoxicity at 0.25 µM [1, 8]: 1.63%
- viability at 0.25 µM [1, 9]: 92.8%
- cytotoxicity at 1 µM ([1]; Mus musculus, B16-F10, 1 uM, 48 hours, read-out: AnnV+DAPI+ (%) Mean): 6.38%
- cytotoxicity at 1 µM ([1]; Mus musculus, B16-F10, 1 uM, 48 hours, read-out: AnnV+DAPI− (%) Mean): 1.74%
- cytotoxicity at 1 µM ([1]; Mus musculus, B16-F10, 1 uM, 48 hours, read-out: AnnV−DAPI+ (%) Mean): 0.89%
- viability at 1 µM ([1]; Mus musculus, B16-F10, 1 uM, 48 hours, read-out: AnnV−DAPI− (%) Mean): 91%
- viability at 48 h, 0.25 µM ([3]; B16F10 melanoma tumor cells): 99.8%
- viability at 48 h, 1 µM ([3]; B16F10 melanoma tumor cells, 1 uM): 97.9%
- viability at 48 h, 0.05 uM ([3]; B16F10 melanoma tumor cells): 96.8%
- growth arrest [2]: caused some degree of growth arrest

Compound: N.N.[Cl][Pt][Cl] [Cis, cisplatin]
- AnnV+DAPI+ (%) Mean ([1]; 10 uM, 48 hours): 2.76%
- AnnV+DAPI− (%) Mean ([1]; 10 uM, 48 hours): 3.68%
- AnnV−DAPI+ (%) Mean ([1]; 10 uM, 48 hours): 0.32%
- AnnV−DAPI− (%) Mean ([1]; 10 uM, 48 hours): 93.25%
- AnnV+DAPI+ (%) Mean ([1]; 50 uM, 48 hours): 18.75%
- AnnV+DAPI− (%) Mean ([1]; 50 uM, 48 hours): 46.80%
- AnnV−DAPI+ (%) Mean ([1]; 50 uM, 48 hours): 2.96%
- AnnV−DAPI− (%) Mean ([1]; 50 uM, 48 hours): 31.55%
- cell death by DAPI and Annexin V staining ([1]; 48 hours): caused varying extents of apoptotic and non-apoptotic cell death

Compound: O=c1[nH]cc(F)c(=O)[nH]1 [5-FU, 5-fluorouracil]
- cell death by DAPI and Annexin V staining ([1]; 48 hours): caused varying extents of apoptotic and non-apoptotic cell death
- cytotoxicity at 10 µM ([1]; Mus musculus, B16-F10, 10 uM, 48 hours, read-out: AnnV+DAPI+ (%) Mean): 5.29%
- cytotoxicity at 10 µM ([1]; Mus musculus, B16-F10, 10 uM, 48 hours, read-out: AnnV+DAPI− (%) Mean): 9.5%
- cytotoxicity at 10 µM ([1]; Mus musculus, B16-F10, 10 uM, 48 hours, read-out: AnnV−DAPI+ (%) Mean): 1.23%
- viability at 10 µM ([1]; Mus musculus, B16-F10, 10 uM, 48 hours, read-out: AnnV−DAPI− (%) Mean): 84%
- cytotoxicity at 50 µM ([1]; Mus musculus, B16-F10, 50 uM, 48 hours, read-out: AnnV+DAPI+ (%) Mean): 6.78%
- cytotoxicity at 50 µM ([1]; Mus musculus, B16-F10, 50 uM, 48 hours, read-out: AnnV+DAPI− (%) Mean): 28.1%
- cytotoxicity at 50 µM ([1]; Mus musculus, B16-F10, 50 uM, 48 hours, read-out: AnnV−DAPI+ (%) Mean): 1.33%
- viability at 50 µM ([1]; Mus musculus, B16-F10, 50 uM, 48 hours, read-out: AnnV−DAPI− (%) Mean): 63.9%
- viability at 48 h, 10 µM ([3]; B16F10 melanoma tumor cells, 10 uM): 49%
- viability at 48 h, 50 µM ([3]; B16F10 melanoma tumor cells, 50 uM): 42.8%

Compound: CC[C@@]1(O)C(=O)OCc2c1cc1n(c2=O)Cc2cc3ccccc3nc2-1 [CPT, camptothecin]
- cell death by DAPI and Annexin V staining ([1]; 48 hours): did not induce substantial amounts of cell death
- cytotoxicity at 0.05 µM [1, 6]: 7.03%
- cytotoxicity at 0.05 µM [1, 7]: 1.26%
- cytotoxicity at 0.05 µM [1, 8]: 1.35%
- viability at 0.05 µM [1, 9]: 90.4%
- cytotoxicity at 0.25 µM [1, 6]: 4.71%
- cytotoxicity at 0.25 µM [1, 7]: 4.35%
- cytotoxicity at 0.25 µM [1, 8]: 0.58%
- viability at 0.25 µM [1, 9]: 90.3%
- viability at 48 h, 0.25 µM ([3]; B16F10 melanoma tumor cells): 77.6%
- viability at 48 h, 0.05 uM ([3]; B16F10 melanoma tumor cells): 91.1%

Compound: O=P1(N(CCCl)CCCl)NCCCO1 (stereo not shown) [CPM, cyclophosphamide]
- cell death by DAPI and Annexin V staining ([1]; 48 hours): did not induce substantial amounts of cell death
- cytotoxicity at 40 µM [1, 10]: 7.7%
- cytotoxicity at 200 µM [1, 10]: 11%
- cytotoxicity at 40 µM [1, 11]: 1.44%
- cytotoxicity at 200 µM [1, 11]: 1.09%
- cytotoxicity at 40 µM [1, 12]: 0.82%
- cytotoxicity at 200 µM [1, 12]: 0.88%
- viability at 40 µM [1, 13]: 90%
- viability at 200 µM [1, 13]: 87%
- viability at 48 h, 40 µM ([3]; 40 uM): 98.5%
- viability at 48 h, 200 µM ([3]; 200 uM): 101%
